What was measured:
male Sprague-Dawley rats = assay: Post-Incisional (Brennan) Pain Test; format: in vivo; details: rat, oral; for cumulative pain score, 4 h: 4 h post-dosing; for cumulative pain score, 24 h: 24 h post-dosing
Method: Incisional pain was induced in non-fasted male Sprague-Dawley rats weighing 180-300 g by making a 1-cm plantar incision in the left hind paw and is designed to mimic pain and sensitivity similar to what is reported by patients after surgery. Dosing occurred at the time of incision and spontaneous pain was measured 4 and 24 hours post-dosing using a cumulative pain score. The unrestrained animals were placed on a metal mesh platform and allowed to acclimate for about 15 min/ Each animal was closely observed during a 1-min period repeated every 5 min for 1 h (12 times total). Depending on the position in which the foot was found during the scoring period, a score of 0, 1, or 2 was given. Full weight bearing of the foot (score=0) was present if the skin on the plantar surface of the paw wound was blanched or distorted by the mesh. If the foot was completely off the mesh, or one or more instances of licking or flinching was observed, a score of 2 was recorded and the licking or flinching was noted but not counted. If the plantar surface of the paw touched the mesh without blanching or distorting, a score of 1 was given. The sum of the 12 scores obtained during the 1 h session was calculated (maximum score=24) for each animal. Observations were made during hours 4 and 24. Test articles were administered orally at concentrations of 10, 30 or 100 mg/kg and ketoprofen was administered subcutaneously at a concentration of 10 mg/kg. The control group received the vehicle (sterile water). In Table 6, ‘A’ designates a cumulative pain score of ≤11, ‘B’ designates >11 and ≤16, and ‘C’ designates >16.
The results provided in Table 6 are for oral administration in rats.

adult male C57BL/6 mice = assay: Conditioned Place Preference (Abuse) Test; format: in vivo, mouse; details: mouse, in vivo, ip
Excerpt: A conditioned place preference (CPP) model was used to assess the reward properties of compounds of formulae (Ie), or a pharmaceutically acceptable salt of any of the foregoing, in adult male C57BL/6 mice. The CPP model apparatus consisted of a Plexiglas© test unit having three (A, B, C) compartments (9 cm×9 cm×16 cm) configured to allow access to all chambers. Compartments A and C had textually distinct flooring and wall marking. Mice were placed in the middle compartment with free access to the other compartments. On day 1 and 2, the “naive chamber preference” was assessed by placing the animal in the middle chamber twice a day (AM and PM) for 30 min on two consecutive days, with the chamber showing the greatest residence time being called the “preferred chamber”. On “drug pairing days” (days 5, 6, 7 and 8) mice were injected IP with vehicle (50 mM citric acid) in the AM in the preferred chamber and the drug/vehicle in the afternoon in the non-preferred chamber for four consecutive days. On the morning of day 9 (the day after the last drug pairing), the “drug chamber preference” was assessed by placing the mouse (absent any injection) in the middle chamber, with free access to all chambers for 30 minutes. This was repeated five days later (day fourteen), with no intervening drug treatment.
The time spent on days 9 and 14 (e.g. […] respectively after the last drug treatment) in the drug associated chamber was the test datum and is represented in FIG. 1. […] In contrast, there was no increase in the non-preferred chamber residence time when the least-preferred chamber was paired with saline, APAP or test compounds 2 or 28 on either days 9 or 14, or days 0 or 5.

SMILES | cumulative pain score, 4 h (male Sprague-Dawley rats; 10 mg/kg) | cumulative pain score, 24 h (male Sprague-Dawley rats; 10 mg/kg) | cumulative pain score, 4 h (male Sprague-Dawley rats; 30 mg/kg) | cumulative pain score, 24 h (male Sprague-Dawley rats; 30 mg/kg) | cumulative pain score, 4 h (male Sprague-Dawley rats; 100 mg/kg) | cumulative pain score, 24 h (male Sprague-Dawley rats; 100 mg/kg) | least preferred (drug associated) chamber residence time (adult male C57BL/6 mice)
Cl.NC12CC(c3nc(C(F)(F)F)cs3)(C1)C2 [Compound 1, 3-(4-(Trifluoromethyl)thiazol-2-yl)bicyclo[1.1.1]pentan-1-amine hydrochloride] | C (>16) | B (>11 and ≤16) | A (a cumulative pain score of ≤11) | A (a cumulative pain score of ≤11) | A (a cumulative pain score of ≤11) | A (a cumulative pain score of ≤11) | 
Cc1sc(C23CC(N)(C2)C3)nc1C(F)(F)F.Cl [Compound 2, 3-(5-Methyl-4-(trifluoromethyl)thiazol-2-yl)bicyclo[1.1.1]pentan-1-amine hydrochloride] |  |  |  |  |  |  | no increase

From patent publication US11242327B2, “Analgesic compounds” (RECURIUM IP HOLDINGS, LLC, priority 2017, dated 2022)
